In patent publication US20230114728A1 (Venatorx Pharmaceuticals, Inc., priority 2019, published 2023):
In brackets after ≈: the same amount, converted by molar mass.

Experiments:
P. aeruginosa PBP3 = molecular target: T1, P. aeruginosa PBP3 (Pseudomonas aeruginosa, UniProt G3XD46); assay: Bocillin-FL fluorescence polarization competition binding assay, P. aeruginosa PBP3; settings: fluorescence polarization competition binding assay using Bocillin-FL
T1 construct: made in house
Summary of the method: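 Inhibitor competition with Bocillin-FL for P. aeruginosa PBP3 was followed by fluorescence polarization on a Cytation3 (BioTek) reader, using g-factor 0.96, 490 nm excitation and 520 nm emission. The enzyme was at 0.75 μM and the probe at 0.1 μM in Hepes/NaCl/glycerol buffer, 80 μl per well. FP was recorded immediately after probe addition for up to 60 minutes. Potency was expressed as EC50, the concentration that reduces bound probe by 50%.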

P. aeruginosa ATCC 27853 = assay: Broth microdilution MIC in CAMHB; assay type: cell-based; settings: Pseudomonas aeruginosa, ATCC27853; MHB; read-out: Minimum Inhibitory Concentration, P. aeruginosa ATCC 27853
Summary of the method: (§1)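 Lowest compound concentration with no visible growth after 16-20 h at 37 °C defines MIC. Plates of 2-fold serial dilutions in cation-adjusted Mueller Hinton broth received 2-8×10^5 CFU/mL of exponentially grown cells, per CLSI methods; panel spans reference, hyper-permeable and efflux-pump-deleted strains.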

E. coli AG100 = assay: Broth microdilution MIC in CAMHB; assay type: cell-based; settings: Escherichia coli; E. coli AG100 (wild-type parent); MHB; read-out: Minimum Inhibitory Concentration, E. coli AG100
Summary of the method: as §1

E. coli 901C = assay: Broth microdilution MIC in CAMHB; assay type: cell-based; settings: Escherichia coli; E. coli 901C (hyper-permeable); MHB; read-out: Minimum Inhibitory Concentration, E. coli 901C
Summary of the method: as §1

A. baumannii ATCC 19606 = assay: Broth microdilution MIC in CAMHB; assay type: cell-based; settings: Acinetobacter baumannii, ATCC19606; MHB; read-out: Minimum Inhibitory Concentration, A. baumannii ATCC 19606
Summary of the method: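 Colonies from cation-adjusted Mueller Hinton agar are grown in broth (3-5 h, 37° C), adjusted by OD600, and added at 2-8×10^5 CFU/mL to 2-fold compound dilutions. After 16-20 h at 37° C, the lowest concentration without growth is taken as MIC.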

[1] = test system: K. pneumoniae 848844 producing SHV-11 and KPC-2; assay: Broth microdilution MIC in CAMHB; assay type: cell-based; settings: Klebsiella pneumoniae, read-out: Minimum Inhibitory Concentration, K. pneumoniae 848844
Summary of the method: as §1

[2] = test system: K. pneumoniae UMM producing SHV-5 and KPC-2; assay: Broth microdilution MIC in CAMHB; assay type: cell-based; settings: Klebsiella pneumoniae, read-out: Minimum Inhibitory Concentration, K. pneumoniae UMM
Summary of the method: as §1

[3] = test system: P. aeruginosa (ΔmexAB-oprM); assay: Broth microdilution MIC in CAMHB; assay type: cell-based; settings: Pseudomonas aeruginosa, read-out: Minimum Inhibitory Concentration, P. aeruginosa ΔmexAB-OprM
Summary of the method: as §1

E. coli K12 PBP3 = molecular target: T2, E. coli K12 PBP3 (Escherichia coli, UniProt P0AD68); assay: biochemical; assay type: binding
T2 construct: made in house
Summary of the method: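 A. baumannii PBP2 (2.5 μM) and PBP3 (0.2 μM) were run in 25 mM Tris pH 8.0 buffer with Tween 20; E. coli PBP3 (1.5 μM) and N. gonorrhoeae PBP2 ([…]) in 50 mM Hepes pH 8.0 buffer.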

T2 sequence (P0AD68 1-577): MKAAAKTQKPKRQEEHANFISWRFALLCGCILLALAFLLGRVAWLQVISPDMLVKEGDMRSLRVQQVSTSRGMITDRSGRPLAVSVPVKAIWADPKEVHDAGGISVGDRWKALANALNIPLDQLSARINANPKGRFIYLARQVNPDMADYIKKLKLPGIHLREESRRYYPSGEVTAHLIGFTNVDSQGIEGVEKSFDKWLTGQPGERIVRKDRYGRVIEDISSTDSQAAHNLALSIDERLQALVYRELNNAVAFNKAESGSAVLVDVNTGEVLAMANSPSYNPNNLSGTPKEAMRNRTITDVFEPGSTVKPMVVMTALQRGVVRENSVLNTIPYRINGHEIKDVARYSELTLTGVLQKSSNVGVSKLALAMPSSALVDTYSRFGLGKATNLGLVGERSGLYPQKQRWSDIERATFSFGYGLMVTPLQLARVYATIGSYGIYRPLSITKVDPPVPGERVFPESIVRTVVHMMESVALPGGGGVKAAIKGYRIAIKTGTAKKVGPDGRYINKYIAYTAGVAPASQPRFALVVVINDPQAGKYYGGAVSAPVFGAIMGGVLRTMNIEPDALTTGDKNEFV
T1 sequence (G3XD46 whole entry): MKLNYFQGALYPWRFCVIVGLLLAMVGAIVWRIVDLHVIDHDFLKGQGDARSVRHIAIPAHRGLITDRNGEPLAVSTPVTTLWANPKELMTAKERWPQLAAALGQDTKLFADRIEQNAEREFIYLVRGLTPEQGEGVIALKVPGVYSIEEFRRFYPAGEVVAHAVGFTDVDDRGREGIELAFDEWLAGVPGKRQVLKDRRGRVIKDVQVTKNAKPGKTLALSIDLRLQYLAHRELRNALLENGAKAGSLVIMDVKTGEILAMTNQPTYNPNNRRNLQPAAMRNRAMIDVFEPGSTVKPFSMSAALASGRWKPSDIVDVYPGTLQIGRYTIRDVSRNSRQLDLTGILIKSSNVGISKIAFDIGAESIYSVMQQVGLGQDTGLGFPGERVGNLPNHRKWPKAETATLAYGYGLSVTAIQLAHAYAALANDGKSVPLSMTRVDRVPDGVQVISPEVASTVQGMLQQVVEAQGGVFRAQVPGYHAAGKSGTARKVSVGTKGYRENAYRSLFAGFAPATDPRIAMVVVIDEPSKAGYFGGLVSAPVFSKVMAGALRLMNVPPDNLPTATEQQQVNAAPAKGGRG

Row | Structure (SMILES) | P. aeruginosa PBP3 Potency (P. aeruginosa PBP3) | MIC (P. aeruginosa ATCC 27853) | MIC (E. coli AG100) | MIC (E. coli 901C) | MIC (A. baumannii ATCC 19606) | MIC [1] | MIC [2] | MIC [3] | EC50 (E. coli K12 PBP3)
1 | NS(=O)(=O)c1cccc(C(NC(=O)N2CCN(CCF)C(=O)C2=O)C(=O)N[C@H]2Cc3cccc(C(=O)O)c3OB2O)c1 (stereo partly drawn) [Example 100, (3R)-3-(2-(4-(2-fluoroethyl)-2,3-dioxopiperazine-1-carboxamido)-2-(3-sulfamoylphenyl)acetamido)-2-hydroxy-3,4-dihydro-2H-benzo[e][1,2]oxaborinine-8-carboxylic acid] | D (D represents a potency <10 μM) | > 128 µg/mL | 32 to 64 µg/mL (≈ 52.9 to 106 µM) | < 0.25 µg/mL | > 128 µg/mL | 32 to 64 µg/mL (≈ 52.9 to 106 µM) | 32 to 64 µg/mL (≈ 52.9 to 106 µM) | 8 to 16 µg/mL (≈ 13.2 to 26.4 µM) | 30 to 500 µM
2 | CCN1CCN(C(=O)NC(C(=O)N[C@H]2Cc3cccc(C(=O)O)c3OB2O)c2cc(Cl)c(O)c(Cl)c2)C(=O)C1=O (stereo partly drawn) [Example 171, (3R)-3-(2-(3,5-dichloro-4-hydroxyphenyl)-2-(4-ethyl-2,3-dioxopiperazine-1-carboxamido)acetamido)-2-hydroxy-3,4-dihydro-2H-benzo[e][1,2]oxaborinine-8-carboxylic acid] | D (D represents a potency <10 μM) | > 128 µg/mL | 32 to 64 µg/mL (≈ 53.9 to 108 µM) | < 0.25 µg/mL | > 128 µg/mL | > 128 µg/mL | 32 to 64 µg/mL (≈ 53.9 to 108 µM) | 2 to 4 µg/mL (≈ 3.37 to 6.74 µM) | < 30 µM
3 | CCN1CCN(C(=O)NC(C(=O)N[C@H]2Cc3cccc(C(=O)O)c3OB2O)c2cc(F)c(O)c(F)c2F)C(=O)C1=O (stereo partly drawn) [Example 172, (3R)-3-(2-(4-ethyl-2,3-dioxopiperazine-1-carboxamido)-2-(2,3,5-trifluoro-4-hydroxyphenyl)acetamido)-2-hydroxy-3,4-dihydro-2H-benzo[e][1,2]oxaborinine-8-carboxylic acid] | D (D represents a potency <10 μM) | > 128 µg/mL | 8 to 16 µg/mL (≈ 13.8 to 27.7 µM) | < 0.25 µg/mL | > 128 µg/mL | > 128 µg/mL | 32 to 64 µg/mL (≈ 55.3 to 111 µM) | 2 to 4 µg/mL (≈ 3.46 to 6.92 µM) | < 30 µM
4 | CCN1CCN(C(=O)NC(C(=O)N[C@H]2Cc3ccc(F)c(C(=O)O)c3OB2O)c2c(F)cc(O)cc2F)C(=O)C1=O (stereo partly drawn) [Example 130, (3R)-3-(2-(2,6-difluoro-4-hydroxyphenyl)-2-(4-ethyl-2,3-dioxopiperazine-1-carboxamido)acetamido)-7-fluoro-2-hydroxy-3,4-dihydro-2H-benzo[e][1,2]oxaborinine-8-carboxylic acid] | D (D represents a potency <10 μM) | > 128 µg/mL | 32 to 64 µg/mL (≈ 55.3 to 111 µM) | < 0.25 µg/mL | > 128 µg/mL | 32 to 64 µg/mL (≈ 55.3 to 111 µM) | 8 to 16 µg/mL (≈ 13.8 to 27.7 µM) | 32 to 64 µg/mL (≈ 55.3 to 111 µM) | < 30 µM
5 | NCCN1CCN(C(=O)N[C@@H](C(=O)N[C@H]2Cc3ccc(F)c(C(=O)O)c3OB2O)c2c(F)cc(O)cc2F)C(=O)C1=O (single isomer, unassigned) [Example 127] | D (D represents a potency <10 μM) | > 128 µg/mL | 8 to 16 µg/mL (≈ 13.5 to 27 µM) | 2 to 4 µg/mL (≈ 3.37 to 6.74 µM) | > 128 µg/mL | 32 to 64 µg/mL (≈ 53.9 to 108 µM) | 8 to 16 µg/mL (≈ 13.5 to 27 µM) | 8 to 16 µg/mL (≈ 13.5 to 27 µM) | < 30 µM
6 | CCN1CCN(C(=O)N[C@H](C(=O)N[C@H]2Cc3cccc(C(=O)O)c3OB2O)c2ccc(C(=O)O)c(F)c2)C(=O)C1=O (single isomer, unassigned) [Example 147] | D (D represents a potency <10 μM) | > 128 µg/mL | 32 to 64 µg/mL (≈ 56.1 to 112 µM) | < 0.25 µg/mL | > 128 µg/mL | > 128 µg/mL | 32 to 64 µg/mL (≈ 56.1 to 112 µM) | 8 to 16 µg/mL (≈ 14 to 28.1 µM) | < 30 µM
7 | NC1(CN2CCN(C(=O)N[C@@H](C(=O)N[C@H]3Cc4cccc(C(=O)O)c4OB3O)c3c(F)cc(O)cc3F)C(=O)C2=O)CC1 (single isomer, unassigned) [Example 121] | D (D represents a potency <10 μM) | > 128 µg/mL | 8 to 16 µg/mL (≈ 13.3 to 26.6 µM) | 0.5 to 1 µg/mL (≈ 0.831 to 1.66 µM) | > 128 µg/mL | 32 to 64 µg/mL (≈ 53.2 to 106 µM) | 8 to 16 µg/mL (≈ 13.3 to 26.6 µM) | 8 to 16 µg/mL (≈ 13.3 to 26.6 µM) | < 30 µM
8 | CCN1CCN(C(=O)NC(C(=O)N[C@H]2Cc3cccc(C(=O)O)c3OB2O)c2cccc(CN)c2)C(=O)C1=O (stereo partly drawn) [Example 108, (3R)-3-(2-(3-(aminomethyl)phenyl)-2-(4-ethyl-2,3-dioxopiperazine-1-carboxamido)acetamido)-2-hydroxy-3,4-dihydro-2H-benzo[e][1,2]oxaborinine-8-carboxylic acid] | B (B represents a potency between 30 μM and 500 μM inclusive) | > 128 µg/mL | 32 to 64 µg/mL (≈ 59.6 to 119 µM) | 2 to 4 µg/mL (≈ 3.72 to 7.44 µM) | > 128 µg/mL | > 128 µg/mL | 32 to 64 µg/mL (≈ 59.6 to 119 µM) | 32 to 64 µg/mL (≈ 59.6 to 119 µM) | 30 to 500 µM
9 | NC1(CN2CCN(C(=O)NC(C(=O)N[C@H]3Cc4cccc(C(=O)O)c4OB3O)c3cccc(NS(N)(=O)=O)c3)C(=O)C2=O)CC1 (stereo partly drawn) [Example 120, (3R)-3-(2-(4-((1-aminocyclopropyl)methyl)-2,3-dioxopiperazine-1-carboxamido)-2-(3-(sulfamoylamino)phenyl)acetamido)-2-hydroxy-3,4-dihydro-2H-benzo[e][1,2]oxaborinine-8-carboxylic acid] | D (D represents a potency <10 μM) | > 128 µg/mL | > 128 µg/mL | 2 to 4 µg/mL (≈ 3.11 to 6.22 µM) | > 128 µg/mL | > 128 µg/mL | 32 to 64 µg/mL (≈ 49.7 to 99.5 µM) | 8 to 16 µg/mL (≈ 12.4 to 24.9 µM) | 30 to 500 µM
10 | CCN1CCN(C(=O)NC(C(=O)N[C@H]2Cc3cccc(C(=O)O)c3OB2O)c2c(Cl)cc(C(=O)O)cc2Cl)C(=O)C1=O (stereo partly drawn) [Example 150, (3R)-3-(2-(4-carboxy-2,6-dichlorophenyl)-2-(4-ethyl-2,3-dioxopiperazine-1-carboxamido)acetamido)-2-hydroxy-3,4-dihydro-2H-benzo[e][1,2]oxaborinine-8-carboxylic acid] | D (D represents a potency <10 μM) | > 128 µg/mL | > 128 µg/mL | < 0.25 µg/mL | > 128 µg/mL | > 128 µg/mL | > 128 µg/mL | > 128 µg/mL | 30 to 500 µM
11 | NCCCN1CCN(C(=O)NC(C(=O)N[C@H]2Cc3ccc(F)c(C(=O)O)c3OB2O)c2c(F)cc(O)cc2F)C(=O)C1=O (stereo partly drawn) [Example 178, (3R)-3-(2-(4-(3-aminopropyl)-2,3-dioxopiperazine-1-carboxamido)-2-(2,6-difluoro-4-hydroxyphenyl)acetamido)-7-fluoro-2-hydroxy-3,4-dihydro-2H-benzo[e][1,2]oxaborinine-8-carboxylic acid] | D (D represents a potency <10 μM) | > 128 µg/mL | 8 to 16 µg/mL (≈ 13.2 to 26.3 µM) | 2 to 4 µg/mL (≈ 3.29 to 6.59 µM) | > 128 µg/mL | 32 to 64 µg/mL (≈ 52.7 to 105 µM) | 8 to 16 µg/mL (≈ 13.2 to 26.3 µM) | 8 to 16 µg/mL (≈ 13.2 to 26.3 µM) | < 30 µM
12 | CCN1CCN(C(=O)NC(C(=O)N[C@H]2Cc3cccc(C(=O)O)c3OB2O)c2cccc(C(=O)O)c2)C(=O)C1=O (stereo partly drawn) [Example 113, (3R)-3-(2-(3-carboxyphenyl)-2-(4-ethyl-2,3-dioxopiperazine-1-carboxamido)acetamido)-2-hydroxy-3,4-dihydro-2H-benzo[e][1,2]oxaborinine-8-carboxylic acid] | D (D represents a potency <10 μM) | > 128 µg/mL | 32 to 64 µg/mL (≈ 57.9 to 116 µM) | < 0.25 µg/mL | > 128 µg/mL | > 128 µg/mL | 32 to 64 µg/mL (≈ 57.9 to 116 µM) | 8 to 16 µg/mL (≈ 14.5 to 29 µM) | < 30 µM
13 | CCN1CCN(C(=O)N[C@H](C(=O)N[C@H]2Cc3ccc(F)c(C(=O)O)c3OB2O)c2c(F)cc(O)c(O)c2Cl)C(=O)C1=O (single isomer, unassigned) [Example 125] | A (A represents a potency of >500 μM) | > 128 µg/mL | 32 to 64 µg/mL (≈ 52.4 to 105 µM) | < 0.25 µg/mL | > 128 µg/mL | 32 to 64 µg/mL (≈ 52.4 to 105 µM) | 32 to 64 µg/mL (≈ 52.4 to 105 µM) | 32 to 64 µg/mL (≈ 52.4 to 105 µM) | > 500 µM
